From patent publication US7795220B2, “Conformationally constrained parathyroid hormones with alpha-helix stabilizers” (The General Hospital Corporation, priority 2003, dated 2010)
Non-standard residues stand in square brackets, D forms with d. Residues, ends and D or L forms follow the SMILES beside them. hArg = N=C(N)NCCCC[C@H](N)C(=O)O; Ac5c = NC1(C(=O)O)CCCC1; Aib = CC(C)(N)C(=O)O

How the values were obtained:
[1] = test system: P1R (recombinant P1R chimera) in HKRK-B28 cells; assay: cAMP stimulation in HKRK-B28 cells; type: cell-based, opposum/rat chimera
Text: (§1) Cell Culture. The cell line HKRK-B28 (Takasu, H., et al., J. Bone Miner. Res. 14:11-20 (1999)) was derived from the porcine kidney cell line, LLC-PK1 by stable transfection with plasmid DNA encoding a recombinant P1R chimera comprised of the opposum P1R from the N-terminus to the mid region of TM3 and the rat P1R from the mid region of TM3 to the C-terminus. The surface density of the P1R in these cells is ˜280,000 receptors per cell. The clonal cell line LdelNt-2 was derived from LLC-PK, cells via stable transfection with a plasmid encoding P1R-delNt, a recombinant human PTH-1 receptor construct in which most of the amino-terminal extracellular domain is deleted. These cells, as well as COS-7 cells and SaOS-2-B10 cells, were cultured at […] in T-75 flasks ([…]) in Dulbecco's modified Eagle's medium (DMEM) supplemented with fetal bovine serum (10%), penicillin G (20 units/ml), streptomycin sulfate (20 μg/ml) and amphotericin B (0.05 μg/ml) in a humidified atmosphere containing 5% CO2. Stock solutions of EGTA/trypsin and antibiotics were from GLBCO; fetal bovine serum was from Hyclone Laboratories (Logan, Utah). COS-7 cells sub-cultured in 24-well plates were transfected with plasmid DNA (200 ng per well) encoding the wild-type human P1R or truncated human P1R deleted for residues (24-181) (Shimizu, M., et al., J. Biol. Chem. 275:21836-21843 (2000)) that was purified by cesium chloride/ethidium bromide density gradient centrifugation, and FuGENE 6 transfection reagent (Roche Indianapolis Ind.) according to the manufacturer's recommended procedure. All cells, in 24-well plates, were treated with fresh media and shifted to 33° C. for 12 to 24 h prior to assay.
(§2) cAMP Stimulation. Stimulation of cells with peptide analogs was performed in 24-well plates. Cells were rinsed with 0.5 mL of binding buffer (50 mM Tris-HCl, 100 mM NaCl, 5 mM KCl, 2 mM CaCl2, 5% heat-inactivated horse serum, 0.5% fetal bovine serum, adjusted to pH 7.5 with HCl) and treated with 200 μL of cAMP assay buffer (Delbecco's modified Eagle's medium containing 2 mM 3-isobutyl-1-methylxanthine, 1 mg/mL bovine serum albumin, 35 mM Hepes-NaOH, pH 7.4) and 100 μL of binding buffer containing varying amounts of peptide analog (final volume=300 μL). The medium was removed after incubation for 30 to 60 minutes at room temperature, and the cells were frozen on dry ice, lysed with 0.5 mL 50 mM HCl, and refrozen ([…]). The cAMP content of the diluted lysate was determined by radioimmunoassay. The EC50 response values were calculated using nonlinear regression (see below).
(§3) Data Calculation. Calculations were performed using Microsoft® Excel. Nonlinear regression analyses of binding and cAMP dose-response data were performed using the four-parameter equation: yp=Min+[(Max−Min)/(1+(IC50/x)^slope)]. The Excel Solver function was utilized for parameter optimization, as described previously (Carter, P. H., et al., Endocrinology 140: 4972-4981 (1999); Bowen, W. P., and Jerman, J. C., Trends in Pharmacol. Sci. 16: 413-417 (1995)). Differences between paired data sets were statistically evaluated using a one-tailed Student's t-test, assuming unequal variances for the two sets.

[2] = biological target: T1, hP1R-delNt (Homo sapiens, UniProt Q03431); assay: cAMP stimulation in LdelNt-2 cells; type: cell-based
T1 construct: expressed in transfected cells
T1 sequence (Q03431 with tags, fused parts or gaps limits assumed): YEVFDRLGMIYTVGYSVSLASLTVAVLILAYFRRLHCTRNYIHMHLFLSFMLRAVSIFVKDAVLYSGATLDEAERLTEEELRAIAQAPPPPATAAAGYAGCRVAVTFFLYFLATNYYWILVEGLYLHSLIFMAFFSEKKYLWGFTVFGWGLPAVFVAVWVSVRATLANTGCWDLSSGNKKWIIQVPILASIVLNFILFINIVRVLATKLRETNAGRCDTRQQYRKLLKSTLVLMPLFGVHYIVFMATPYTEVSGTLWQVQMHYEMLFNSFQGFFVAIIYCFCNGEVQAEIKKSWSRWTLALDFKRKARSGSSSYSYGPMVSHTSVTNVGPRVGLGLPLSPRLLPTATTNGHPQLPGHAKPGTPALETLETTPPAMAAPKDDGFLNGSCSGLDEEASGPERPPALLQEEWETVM
Text: as §1, §2, §3
Agonist activities of selected analogs in cells expressing P1R-delNt were examined. This PTH-1 receptor construct lacks most of the N domain, but nevertheless mediates full agonist responses to N-terminally modified PTH analogs, and thus enables the relative roles of the receptor's N and J domains to the ligand interaction process to be evaluated. The clonal cell line LdelNT-2 was used, which was derived from LLC-PK, cells by stable transfection with a plasmid encoding the human P1R-delNt construct.

CC[C@H](C)[C@H](NC(=O)[C@H](CCC(=O)O)NC(=O)C(C)(C)NC(=O)[C@@H](NC(=O)C1(N)CCCC1)C(C)C)C(=O)N[C@@H](CCC(N)=O)C(=O)N[C@@H](CC(C)C)C(=O)N[C@@H](CCSC)C(=O)N[C@@H](Cc1c[nH]cn1)C(=O)N[C@@H](CCC(N)=O)C(=O)N[C@@H](CCCCNC(=N)N)C(=O)N[C@@H](C)C(=O)N[C@@H](CCCCN)C(=O)N[C@@H](Cc1c[nH]c2ccccc12)C(N)=O [[Ac5c^1,Aib^3,M]PTH(1-14), [Ac5c^1,Aib^3,Gln^10,Har^11,Ala^12,Trp^14]PTH(1-14)NH2] (H-[Ac5c]V[Aib]EIQLMHQ[hArg]AKW-NH2) was tested, and the “potency for stimulating adenylyl cyclase relative to [Aib1,3,M]PTH(1-14)” value [1] was 2 fold, the EC50 ([1]; HKRK-B28 cells, intracellular cAMP accumulation, read-out: cAMP-stimulating potency (EC50)) was 0.9 nM and the “increase in cAMP levels relative to basal” value ([1]; HKRK-B28 cells, peptide at 10 nM) was 38 fold. The EC50 [2] was 6.4 ± 2.3 nM, the “increase in cAMP accumulation (Emax) over basal” value [2] was 70 fold and the “maximum cAMP response” value [2] was 125±19 picomoles of cAMP per well.
